This is an account of results in patent US10604514B2, “6-(5-membered heteroaryl)isoquinolin-3-yl carboxamides and preparation and use thereof” (Samumed, LLC, priority 2017, dated 2020).

The target of experiment [1] is GSK3β kinase (Homo sapiens (Human), UniProt P49841). Briefly: GSK3β kinase assay (Ser/Thr 09 peptide Z-lyte, FRET).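 Also: Coumarin/fluorescein emission ratio converted to percent phosphorylation against unphosphorylated (0%) and phosphorylated (100%) controls, 1 h compound incubation at room temperature, 11-point threefold dilutions from 10 µM, run in duplicate.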 Type of experiment: biochemical. The conditions noted are these: method text calls the value IC50.
Sequence of GSK3β kinase (P49841 whole entry): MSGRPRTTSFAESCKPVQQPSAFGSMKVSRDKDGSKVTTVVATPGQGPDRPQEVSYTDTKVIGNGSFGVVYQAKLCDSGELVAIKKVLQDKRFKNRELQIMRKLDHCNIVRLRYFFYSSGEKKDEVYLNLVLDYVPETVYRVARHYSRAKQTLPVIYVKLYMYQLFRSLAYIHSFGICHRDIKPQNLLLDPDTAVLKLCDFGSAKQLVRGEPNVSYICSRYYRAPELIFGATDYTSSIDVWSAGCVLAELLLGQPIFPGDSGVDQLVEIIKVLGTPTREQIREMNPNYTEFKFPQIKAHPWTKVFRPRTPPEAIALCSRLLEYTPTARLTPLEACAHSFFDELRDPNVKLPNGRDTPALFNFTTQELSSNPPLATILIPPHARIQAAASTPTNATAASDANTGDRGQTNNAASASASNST
Description: Representative compounds were screened using the assay procedure for GSK30 kinase activity as described below.
Each compound is dissolved in DMSO as a 10 mM stock and used to prepare compound source plates. Serial dilution (1:3, 11-point dose-response curves from 10 M to 0.0003 μM) and compound transfer was performed using the ECHO 550 (Labcyte, Sunnyvale, Calif.) into 1536-well black-walled round bottom plates (Corning).
This is a non-radioactive assay using fluorescence resonance energy transfer (FRET) between coumarin and fluorescein to detect kinase activity which is represented as ratio of coumarin emission/fluorescein emission.
The mixture is allowed to incubate with the representative compounds for one hour at room temperature. All reactions were performed in duplicate. Unphosphorylated (“0% Control”) and phosphorylated (“100% control”) forms of Ser/Thr 18 serve as control reactions.
After incubation, diluted Development Buffer is added to the reaction and allowed to further incubate for one hour at room temperature.
The percent phosphorylation is then calculated using the following formula: [1−((Em ratio×F100%)−C100%)/((C0%−C100%)+(Em ratio×(F100%−F0%)))].
Dose-response curves are generated and inhibitory concentration (IC50) values are calculated using non-linear regression curve fit in the Dotmatics' Studies Software (Bishops Stortford, UK).
The subject of experiment [2] is Wnt activity (Sp5-Luc reporter in SW480 colon carcinoma cells). Briefly: Wnt activity screening assay (Sp5-Luc reporter gene assay). Type of experiment: cell-based, human. A digest of the protocol:
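Compounds at 10 points (1:3 steps, top 10 μM, 0.1% DMSO final) were incubated 36 to 48 h at 37° C with stable Sp5-Luc SW480 reporter cells in 1% FBS medium. Luciferase luminescence was then read and expressed relative to DMSO-only cells. Four-parameter variable-slope fitting yielded EC50 values.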

Experiment [3] relates to IL-6. Briefly: IL-6 inhibition in LPS-stimulated human peripheral blood mononuclear cells (HTRF). Format: cell-based. The conditions noted are these: Homo sapiens, PBMC; for inhibition at 10 µM: read-out: percent value in parentheses below EC50 >10; for EC50: IL-6, LPS-stimulated huPBMCs, HTRF. A digest of the protocol:
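EC50 from a 4-parameter fit of DMSO-normalized HTRF (665/620 nm) IL-6 signal, duplicates. Compound was added to fresh human PBMCs in 1% FBS RPMI for 2 h (top 10 μM, 3-fold, 0.25% DMSO) before 22 h stimulation with LPS at 50 ng/mL, 37 °C.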

For experiment [4], the system named is SW480 colon carcinoma cells. Briefly: Cell viability assay (CellTiter-Glo) in SW480 cells.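 Also: SW480 cells stably carrying an Sp5-luciferase TCF/LEF reporter, luminescent ATP signal as viability measure, DMSO-treated cells as control.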 Format: cell-based, human. For orientation: ATP-based viability assays read luminescence as a measure of living cells.
The target of experiment [5] is DYRK1A kinase (Homo sapiens (Human), UniProt Q13627). Briefly: DYRK1A kinase assay (Ser/Thr 18 peptide Z-lyte, FRET).
Description: Each compound was dissolved in DMSO as a 10 mM stock and used to prepare compound source plates.
This is a non-radioactive assay using fluorescence resonance energy transfer (FRET) between coumarin and fluorescein to detect kinase activity which is represented as a ratio of coumarin emission/fluorescein emission.
The mixture was allowed to incubate with the representative compounds for one hour at room temperature. All reactions were performed in duplicate. Unphosphorylated (“0% Control”) and phosphorylated (“100% control”) forms of Ser/Thr 18 served as control reactions. Additionally, an 11-point dose-response curve of Staurosporine (1 uM top) was run to serve as a positive compound control.
After incubation, Development Reagent A was diluted in Development Buffer then added to the reaction and allowed to further incubate for one hour at room temperature.
The percent phosphorylation was then calculated using the following formula: [1−((Em ratio×F100%)−C100%)/((C0%−C100%)+(Em ratio×(F100%−F0%)))]. Dose-response curves were generated and inhibitory concentration (IC50) values were calculated using non-linear regression curve fit in the Dotmatics' Studies Software (Bishops Stortford, UK).
In experiment [6] the test system is Tau phosphorylation at Ser396 (pSer396), SH-SY5Y cells. Briefly: Tau phosphorylation at Ser396 (pSer396) in SH-SY5Y cells, ELISA/western blot.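 Also: cell lysates probed for reduced Tau pSer396 via ELISA (colorimetric) or western blot (chemiluminescence), both with one shared pSer396 antibody, EC50 for lowering phosphorylation.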 Format: cell-based, human. The conditions noted are these: Homo sapiens.
Experiment [7] concerns LL29 cells (primary human fibroblasts derived from IPF patients), α-smooth muscle actin. Briefly: Inhibition of fibrotic process: αSMA in TGF-β1-treated primary human fibroblasts from IPF patients (LL29 cells). Format: cell-based. Conditions: Homo sapiens, Fibroblast; for EC50: 96 h, % αSMA-positive LL29 cells, TGF-β1 20 ng/mL, 4 days; for inhibition at 10 µM: read-out: percent inhibition at 10 μM. A digest of the protocol: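 Read-out is the percentage of αSMA-positive cells by high-content imaging, excluding SYTOX green-positive dead/apoptotic cells, normalized to TGF-β1-only wells on the same plate. LL29 cells were exposed for 4 days at 37 °C to 20 ng/mL TGF-β1 plus 11-point, 2-fold compound dilutions in 0.1% DMSO.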

Where [8] appears, read: Homo sapiens, SW480; read-out: percent inhibition at 10 μM.
The mark [9] stands for this setting: Homo sapiens; Sp5-Luc reporter, SW480 cells, 36 to 48 hours.
[10] abbreviates: Homo sapiens, 96 h; cell viability, SW480 cells, four days, CellTiter-Glo.
The mark [11] stands for this setting: SH-SY5Y cells, overnight (16-18 h), read-out: pSer396 Tau EC50.
[12] abbreviates: DYRK1A kinase, method text calls the value IC50.
Setting [13] is: Homo sapiens, SW480, read-out: percent inhibition at 10 μM.

The structures appear in SMILES notation. Where two headings read alike, the source gives them in different places.

One may read the EC50 as the concentration at which the effect is half-maximal.

`CC(C)C[N+]1(CC(C)C)CCC(C(=O)Nc2cc3cc(-c4cnn(C)c4)ccc3cn2)CC1` [Compound 170, 1,1-Diisobutyl-4-((6-(1-methyl-1H-pyrazol-4-yl)isoquinolin-3-yl)carbamoyl)piperidin-1-ium]: the EC50 in experiment [1] is 52 nM; in experiment [2] (setting [9]), over 10000 nM; in experiment [3], over 10000 nM; in experiment [4] (setting [10]), over 10000 nM; in experiment [5] it was 15 nM; in experiment [6] (setting [11]) it was 9.91 µM. The compound further registered an EC50 in experiment [7] of 7090 nM. Further, the inhibition at 10 µM in experiment [2] (setting [8]) is 23.1%; in experiment [3] it was 4.4%; in experiment [4] (setting [8]), 27%.
Regarding `Cc1ncc(-c2cc3cc(NC(=O)[C@H]4CC[C@H](N5CCOCC5)CC4)ncc3cc2F)o1` [Compound 55, trans-N-(7-Fluoro-6-(2-methyloxazol-5-yl)isoquinolin-3-yl)-4-morpholinocyclohexane-1-carboxamide], the concentration for a half-maximal effect (EC50) was 88 nM in experiment [1]; 3700 nM in experiment [2] (setting [9]); over 10000 nM in experiment [3]; 1300 nM in experiment [4] (setting [10]); 6 nM in experiment [5] (setting [12]); 0.178 µM in experiment [6] (setting [11]). Moreover, the EC50 in experiment [7] turned out to be 678 nM. Moreover, in experiment [3], the inhibition at 10 µM came out at 18.3%.
`[2H]c1c(NC(=O)CN2CCOCC2)ncc2ccc(-c3cnn(C)c3)cc12` [Compound 68, N-(6-(1-Methyl-1H-pyrazol-4-yl)isoquinolin-3-yl-4-d)-2-morpholinoacetamide]: the EC50 was 66 nM in experiment [1]; 6950 nM in experiment [2] (setting [9]); 4060 nM in experiment [3]; over 10000 nM in experiment [4] (setting [10]); 7 nM in experiment [5]; 0.948 µM in experiment [6] (setting [11]). The EC50 in experiment [7] came out at 1520 nM. Besides, the inhibition at 10 µM in experiment [4] (setting [8]) amounted to 47.2%.
As to `Cc1nnc(-c2ccc3cnc(NC(=O)C4CCN(CC(F)F)CC4)cc3c2)s1` [Compound 27, 1-(2,2-Difluoroethyl)-N-(6-(5-methyl-1,3,4-thiadiazol-2-yl)isoquinolin-3-yl)piperidine-4-carboxamide], the concentration giving a half-maximal response (EC50) is 11 nM in experiment [1]; 927 nM in experiment [2] (setting [9]); over 10000 nM in experiment [3]; 2090 nM in experiment [4] (setting [10]); 6 nM in experiment [5] (setting [12]); 0.104 µM in experiment [6] (setting [11]). This compound showed an EC50 in experiment [7] of 235 nM. For the same compound, in experiment [3], the inhibition at 10 µM came out at 2.8%.
For the compound `[2H]C1([2H])OC([2H])([2H])C([2H])([2H])N(C(=O)Nc2cc3cc(-c4cnc(C)n4C)ccc3cn2)C1([2H])[2H]` [Compound 143, N-(6-(1,2-Dimethyl-1H-imidazol-5-yl)isoquinolin-3-yl)morpholine-d8-4-carboxamide], the 50% effective concentration (EC50) in experiment [1] was 1780 nM; in experiment [2] (setting [9]), 2940 nM; in experiment [3], over 10000 nM; in experiment [4] (setting [10]), 3360 nM; in experiment [5], 11 nM; in experiment [6] (setting [11]) it was 7.2 µM. In experiment [7], this compound came in with a concentration giving a half-maximal response (EC50) of over 10000 nM. For the same compound, the inhibition at 10 µM in experiment [3] is 5.7%; in experiment [7] it was 40.4%.
Turning to `Cc1ncc(-c2ccc3cnc(NC(=O)N4CCn5ccnc5C4)cc3c2)o1` [Compound 126, N-(6-(2-Methyloxazol-5-yl)isoquinolin-3-yl)-5,6-dihydroimidazo[1,2-a]pyrazine-7(8H)-carboxamide], the EC50 came out at 24 nM in experiment [1]; 1180 nM in experiment [2] (setting [9]); 363 nM in experiment [3]; 488 nM in experiment [4] (setting [10]); 5 nM in experiment [5] (setting [12]); 0.197 µM in experiment [6] (setting [11]). The compound further gave an EC50 in experiment [7] of 286 nM.
As for `Cn1cc(-c2ccc3cnc(NC(=O)[C@H]4CC[C@H](NCCF)CC4)cc3c2)cn1` [Compound 197, trans-4-((2-Fluoroethyl)amino)-N-(6-(1-methyl-1H-pyrazol-4-yl)isoquinolin-3-yl)cyclohexane-1-carboxamide], the EC50 came to 87 nM in experiment [1]; 1420 nM in experiment [2] (setting [9]); 994 nM in experiment [3]; 1270 nM in experiment [4] (setting [10]); 3 nM in experiment [5] (setting [12]); 0.57 µM in experiment [6] (setting [11]). Further, the 50% effective concentration (EC50) in experiment [7] was 233 nM.
Consider `[2H]c1c([2H])c([2H])c(/C=C/C(=O)Nc2cc3cc(-c4cnc(C)n4C)ccc3cn2)c([2H])c1[2H]` [Compound 90, (E)-N-(6-(1,2-Dimethyl-1H-imidazol-5-yl)isoquinolin-3-yl)-3-(phenyl-2,3,4,5,6-d5)acrylamide], for which the concentration for a half-maximal effect (EC50) in experiment [1] was 388 nM; in experiment [2] (setting [9]), 159 nM; in experiment [3], 606 nM; in experiment [4] (setting [10]), 312 nM; in experiment [5], 4 nM; in experiment [6] (setting [11]) it was 0.171 µM. Further, the 50% effective concentration (EC50) in experiment [7] amounted to 299 nM.
Regarding `Cn1cc(-c2ccc3cnc(NC(=O)c4cc[n+]([O-])c(N5CC[N+](C)([O-])CC5)c4)cc3c2)nn1` [Compound 225, 1-methyl-4-(4-((6-(1-methyl-1H-1,2,3-triazol-4-yl)isoquinolin-3-yl)carbamoyl)-1-oxidopyridin-2-yl)piperazine 1-oxide], the half-maximal effective concentration (EC50) in experiment [1] is 407 nM; in experiment [2] (setting [9]) it was 3850 nM; in experiment [3], over 10000 nM; in experiment [4] (setting [10]) it was over 10000 nM; in experiment [5] it was 2 nM; in experiment [6] (setting [11]), over 10 µM. The compound further displayed an EC50 in experiment [7] of over 10000 nM. In addition, the figures for the inhibition at 10 µM in experiment [3], in experiment [4] (setting [8]) and in experiment [7] were 6.9%, 28.7% and 24.8%, respectively.
On to `[2H]c1c([2H])c(C(=O)Nc2cc3cc(-c4cnc(C)n4C)ccc3cn2)c([2H])c([2H])c1F` [Compound 158, N-(6-(1,2-Dimethyl-1H-imidazol-5-yl)isoquinolin-3-yl)-4-fluorobenzamide-2,3,5,6-d4], for which the half-maximal effective concentration (EC50) in experiment [1] was 2600 nM; in experiment [2] (setting [9]), 514 nM; in experiment [3], 3360 nM; in experiment [4] (setting [10]), 781 nM; in experiment [5], 5 nM; in experiment [6] (setting [11]), over 10 µM. This compound displayed an EC50 in experiment [7] of 1220 nM.
In the case of `Cc1ncc(-c2ccc3cnc(NC(=O)[C@H]4CC[C@H](CN5CCN(C)CC5)CC4)cc3c2)o1` [Compound 70, trans-N-(6-(2-Methyloxazol-5-yl)isoquinolin-3-yl)-4-((4-methylpiperazin-1-yl)methyl)cyclohexane-1-carboxamide], the concentration giving a half-maximal response (EC50) in experiment [1] was 73 nM; in experiment [2] (setting [9]) it was 1110 nM; in experiment [3], 952 nM; in experiment [4] (setting [10]) it was 1720 nM; in experiment [5] (setting [12]), 2 nM; in experiment [6] (setting [11]) it was 0.307 µM. Besides, the EC50 in experiment [7] is 124 nM.
Take `Cc1nnc(-c2ccc3cnc(NC(=O)N4[C@@H]5CC[C@H]4C[C@H](N)C5)cc3c2)s1` [Compound 151, (1R,5S)-3-exo-Amino-N-(6-(5-methyl-1,3,4-thiadiazol-2-yl)isoquinolin-3-yl)-8-azabicyclo[3.2.1]octane-8-carboxamide]: the EC50 was 103 nM in experiment [1]; over 10000 nM in experiment [2] (setting [9]); over 10000 nM in experiment [3]; over 10000 nM in experiment [4] (setting [10]); 9 nM in experiment [5] (setting [12]); 2.6 µM in experiment [6] (SH-SY5Y, read-out: pSer396 Tau EC50 (μM)). Also, in experiment [7], the EC50 was determined as 2690 nM. Moreover, the inhibition at 10 µM in experiment [2] (setting [13]) worked out at 4.4%; in experiment [3], 13.1%; in experiment [4] (setting [13]) it was 0%.
`[2H]/C(C(=O)Nc1cc2cc(-c3cncn3C)ccc2cn1)=C(/[2H])c1c([2H])c([2H])c([2H])c([2H])c1[2H]` [Compound 94, (E)-N-(6-(1-Methyl-1H-imidazol-5-yl)isoquinolin-3-yl)-3-(phenyl-2,3,4,5,6-d5)acrylamide-2,3-d2]: the concentration giving a half-maximal response (EC50) turned out to be 276 nM in experiment [1]; 88 nM in experiment [2] (setting [9]); 319 nM in experiment [3]; 104 nM in experiment [4] (setting [10]); 2 nM in experiment [5]; 0.244 µM in experiment [6] (setting [11]). In experiment [7], a half-maximal effect (EC50) was put at 125 nM.
For the compound `Cc1nnc(-c2ccc3cnc(NC(=O)N4CC[C@H](NC(C)C)[C@@H](F)C4)cc3c2)s1` [Compound 35, (3S,4S)-3-Fluoro-4-(isopropylamino)-N-(6-(5-methyl-1,3,4-thiadiazol-2-yl)isoquinolin-3-yl)piperidine-1-carboxamide], the concentration for a half-maximal effect (EC50) in experiment [1] is 84 nM; in experiment [2] (setting [9]) it was 3340 nM; in experiment [3], over 10000 nM; in experiment [4] (setting [10]), 4550 nM; in experiment [5] (setting [12]), 26 nM; in experiment [6] (setting [11]), 0.543 µM. The same compound showed an EC50 in experiment [7] of 1020 nM. Also, the inhibition at 10 µM in experiment [3] was determined as 9.6%.
